In ChEMBL document CHEMBL1127883, “Increased antiviral activity of HIV protease inhibitors of the difluorostatone type bearing (R)-valinol derivatives as novel c-termini” (Bioorg Med Chem Lett, 1994):

What was measured:
[1] = target: T1, Human immunodeficiency virus type 1 protease (Human immunodeficiency virus 1, UniProt Q72874); experiment: Inhibitory activity was determined against HIV-1 protease.
[2] = target: Human immunodeficiency virus type 1 protease (Human immunodeficiency virus 1) (UniProt Q72874); experiment: Concentration that inhibits cellular growth of MT-4 cells acutely infected with HIV-1 RFstrain by 50%; type: functional, cell-based; settings: MT4
[3] = Cytotoxic activity was determined against HIV-1 infected MT-4 cells.; type: functional, cell-based; settings: MT4
CCRF-CEM = experiment: Antiviral activity against HIV-1 HIB in CEM cell line; type: functional; settings: Homo sapiens, read-out: ED50 (the source's name)
C8166 [4] = experiment: Antiviral activity against HIV-1 RF in […] cell line; type: functional; settings: Homo sapiens, read-out: ED50 (the source's name)
[5] = test system: Human immunodeficiency virus 1; experiment: Antiviral activity against HIV-1CCl in PBMC cell line; Out of 21 days; type: functional; settings: Human immunodeficiency virus 1, PBMC, 504 h; read-out: ED50 (the source's name)
[6] = test system: Human immunodeficiency virus 1; experiment: Antiviral activity against HIV-1 108/F in PBMC 3 cell line; type: functional; settings: Human immunodeficiency virus 1, PBMC; read-out: ED50 (the source's name)
H9 [7] = experiment: Antiviral activity against HIV-1MN in H9 cell line; type: functional; settings: Homo sapiens, read-out: ED50 (the source's name)
C8166 [8] = experiment: Antiviral activity against SIV-mac251 in C8166 cell line; type: functional; settings: Homo sapiens, read-out: ED50 (the source's name)
H9 [9] = experiment: Antiviral activity against HIV-1HIB in H9 cell line; type: functional; settings: Homo sapiens, read-out: ED50 (the source's name)
JM1 [10] = experiment: Cytotoxic activity against HIV-1QB8F in JM cell line; type: functional; settings: Homo sapiens, read-out: CD50 (the source's name)
C8166 [11] = experiment: Cytotoxic activity against HIV-1 RF in […] cell line; type: functional; settings: Homo sapiens, read-out: CD50 (the source's name)
JM1 [12] = experiment: Antiviral activity against HIV-1 QB8F in JM cell line; type: functional; settings: Homo sapiens, read-out: ED50 (the source's name)
[13] = target: T1, Human immunodeficiency virus type 1 protease; experiment: Inhibitory activity against HIV-1 protease
[14] = test system: Human immunodeficiency virus 1; experiment: Antiviral activity against HIV-1CCL in PBMC 2 cell line; Out of 14 days; type: functional; settings: Human immunodeficiency virus 1, PBMC, 336 h; read-out: ED50 (the source's name)
C8166 [15] = experiment: Antiviral activity against HIV-2red in C8166 cell line; type: functional; settings: Homo sapiens, read-out: ED50 (the source's name)
MT4 [16] = experiment: Antiviral activity against HIV-1 RF in MT-4 cell line; type: functional; settings: Homo sapiens, read-out: ED50 (the source's name)
H938 cell line = experiment: Antiviral activity against HIV-1CCl protease in H938 cell line; type: functional; settings: Homo sapiens, read-out: ED50 (the source's name)
[17] = test system: Human immunodeficiency virus 1; experiment: Antiviral activity against HIV-1CC in PBMC cell line; Out of 7 days; type: functional; settings: Human immunodeficiency virus 1, PBMC, 168 h; read-out: ED50 (the source's name)
MT4 [18] = experiment: Cytotoxic activity against HIV-1 in MT-4 cell line; type: functional; settings: Homo sapiens, read-out: CD50 (the source's name)
H9 [19] = experiment: Antiviral activity against HIV-1U455 in H9 cell line; type: functional; settings: Homo sapiens, read-out: ED50 (the source's name)

For `CC(C)[C@H](COCc1ccccc1)NC(=O)C(F)(F)[C@H](O)C(Cc1ccc(OCc2ccccc2)cc1)NC(=O)[C@@H](NC(=O)OCc1ccccc1)C(C)C` (stereo not given in full), the IC50 [1] was 0.005 µM, the ED50 [2] was greater than 100 µM and the CD50 [3] was greater than 100 µM.
Compound `CC(C)(C)NC(=O)[C@@H]1C[C@@H]2CCCC[C@@H]2CN1C[C@@H](O)[C@H](Cc1ccccc1)NC(=O)[C@H](CC(N)=O)NC(=O)c1ccc2ccccc2n1` has an ED50 [2] of 0.006 µM and a CD50 [3] greater than 10 µM.
In the case of `CC(C)[C@H](CCc1ccccc1)NC(=O)C(F)(F)C(=O)C(Cc1ccc(OCc2ccccc2)cc1)NC(=O)[C@@H](NC(=O)OCc1ccccc1)C(C)C` (stereo not given in full), the IC50 [1] is reported as 0.013 µM, the ED50 [2] is reported as 0.24 µM and the CD50 [3] is reported as 35 µM.
In the case of `CC(C)[C@H](NC(=O)OCc1ccccc1)C(=O)NC(Cc1ccc(OCc2ccccc2)cc1)C(=O)C(F)(F)C(=O)NCc1ccccc1` (stereo not given in full), the ED50 [2] is reported as 0.3 µM and the CD50 [3] is reported as greater than 100 µM.
`CC(C)[C@@H](COCc1ccccc1)NC(=O)C(F)(F)C(=O)C(Cc1ccc(OCc2ccccc2)cc1)NC(=O)[C@H](NC(=O)OCc1ccccc1)C(C)C` (stereo not given in full) gave an IC50 [1] of 2 µM.
For `COC(=O)[C@H](NC(=O)C(F)(F)C(=O)C(Cc1ccc(OCc2ccccc2)cc1)NC(=O)[C@@H](NC(=O)OCc1ccccc1)C(C)C)C(C)C` (stereo not given in full), the IC50 [1] was less than 0.01 µM, the ED50 [2] was 0.022 µM and the CD50 [3] was 2.6 µM.
`CC(C)C(C=O)NC(=O)C(F)(F)C(=O)C(Cc1ccc(OCc2ccccc2)cc1)NC(=O)[C@@H](NC(=O)OCc1ccccc1)C(C)C` (stereo not given in full) gave an IC50 [1] of 0.004 µM, an ED50 [2] of 0.018 µM and a CD50 [3] of 3.2 µM.
`CC(C)[C@H](NC(=O)OCc1ccccc1)C(=O)NC(Cc1ccc(OCc2ccccc2)cc1)C(=O)C(F)(F)C(=O)N[C@@H](C(=O)OC(C)(C)C)C(C)C` (stereo not given in full) showed an IC50 [1] of 0.006 µM, an ED50 [2] of 0.24 µM and a CD50 [3] of 6 µM.
With `Cc1cn([C@H]2C[C@H](N=[N+]=[N-])[C@@H](CO)O2)c(=O)[nH]c1=O` the ED50 [2] was 0.06 µM and the CD50 [3] was greater than 10 µM.
Compound `CC(C)[C@H](NC(=O)OCc1ccccc1)C(=O)NC(Cc1ccc(OCc2ccccc2)cc1)C(=O)C(F)(F)C(=O)N[C@H](COCc1ccccc1)C(C)C` (stereo not given in full) has an IC50 [1] of 0.04 µM, an ED50 [2] of 0.35 µM and a CD50 [3] of 35 µM.
In the case of `COCCOCCO[C@H](NC(=O)C(F)(F)C(=O)C(Cc1ccc(OCc2ccccc2)cc1)NC(=O)[C@@H](NC(=O)OCc1ccccc1)C(C)C)C(C)C` (stereo not given in full), the IC50 [1] is reported as less than 0.015 µM, the ED50 [2] is reported as 0.045 µM and the CD50 [3] is reported as 2.8 µM.
`CC(C)[C@H](COCc1ccccc1)NC(=O)C(F)(F)[C@@H](O)C(Cc1ccc(OCc2ccccc2)cc1)NC(=O)[C@@H](NC(=O)OCc1ccccc1)C(C)C` (stereo not given in full) gave an IC50 [1] of 0.0066 µM, an ED50 [2] greater than 100 µM and a CD50 [3] greater than 100 µM.
With `CC(C)[C@H](COCc1ccccc1)NC(=O)C(F)(F)C(=O)C(Cc1ccc(OCc2ccccc2)cc1)NC(=O)[C@@H](NC(=O)OCc1ccccc1)C(C)C` (stereo not given in full) the EC50 (CCRF-CEM) was 0.03 µM, the EC50 (C8166 [4]) was 0.009 µM and the EC50 [5] was 0.07 µM. It also gave an ED50 [2] of 0.027 µM, an EC50 [6] of 0.035 µM and an EC50 (H9 [7]) of 0.012 µM. It also gave an EC50 (C8166 [8]) of 0.028 µM, an EC50 (H9 [9]) of 0.009 µM and a CC50 (JM1 [10]) greater than 100 µM. It also gave a CC50 (C8166 [11]) of 25 µM, a CD50 [3] of 100 µM and an EC50 (JM1 [12]) of 0.016 µM. For the same compound, the Ki [13] was 0.008 µM, the EC50 [14] was 0.038 µM and the EC50 (C8166 [15]) was 0.033 µM. For the same compound, the EC50 (MT4 [16]) was 0.027 µM, the EC50 (H938 cell line) was 0.049 µM and the EC50 [17] was 0.08 µM. For the same compound, the CC50 (MT4 [18]) was 25 µM and the EC50 (H9 [19]) was 0.035 µM.
In the case of `CC(C)NC(=O)C(F)(F)C(=O)C(Cc1ccc(OCc2ccccc2)cc1)NC(=O)[C@@H](NC(=O)OCc1ccccc1)C(C)C` (stereo not given in full), the IC50 [1] is reported as 0.005 µM, the ED50 [2] is reported as 0.32 µM and the CD50 [3] is reported as 6 µM.
Compound `COCCOCO[C@H](NC(=O)C(F)(F)C(=O)C(Cc1ccc(OCc2ccccc2)cc1)NC(=O)[C@@H](NC(=O)OCc1ccccc1)C(C)C)C(C)C` (stereo not given in full) has an IC50 [1] of less than 0.01 µM, an ED50 [2] of 0.015 µM and a CD50 [3] of 3.4 µM.
Compound `CO[C@H](NC(=O)C(F)(F)C(=O)C(Cc1ccc(OCc2ccccc2)cc1)NC(=O)[C@@H](NC(=O)OCc1ccccc1)C(C)C)C(C)C` (stereo not given in full) has an IC50 [1] of less than 0.01 µM, an ED50 [2] of less than 0.01 µM and a CD50 [3] of 8 µM.
`CC(C)C[C@H](COCc1ccccc1)NC(=O)C(F)(F)C(=O)C(Cc1ccc(OCc2ccccc2)cc1)NC(=O)[C@@H](NC(=O)OCc1ccccc1)C(C)C` (stereo not given in full) gave an IC50 [1] of 0.0018 µM, an ED50 [2] of 0.2 µM and a CD50 [3] of 15 µM.
`CC(C)[C@H](COCc1ccccc1)NC(=O)C(F)(F)C(=O)C(Cc1ccc(OCc2ccccc2)cc1)NC(=O)[C@H](NC(=O)OCc1ccccc1)C(C)C` (stereo not given in full) gave an IC50 [1] of 0.06 µM, an ED50 [2] greater than 95 µM and a CD50 [3] of 95 µM.
`CC(C)[C@H](NC(=O)OCc1ccccc1)C(=O)NC(Cc1ccc(OCc2ccccc2)cc1)C(=O)C(F)(F)C(=O)N[C@@H](C(=O)O)C(C)C` (stereo not given in full) gave an IC50 [1] of 0.004 µM, an ED50 [2] of 50 µM and a CD50 [3] greater than 100 µM.
Compound `CC(C)[C@H](NC(=O)OCc1ccccc1)C(=O)NC(Cc1ccc(OCc2ccccc2)cc1)C(=O)C(F)(F)C(=O)N[C@@H](COCc1ccccc1)c1ccccc1` (stereo not given in full) has an IC50 [1] of 0.001 µM, an ED50 [2] of 0.09 µM and a CD50 [3] of 23 µM.
For `CC(C)CNC(=O)C(F)(F)C(=O)C(Cc1ccc(OCc2ccccc2)cc1)NC(=O)[C@@H](NC(=O)OCc1ccccc1)C(C)C` (stereo not given in full), the IC50 [1] was 0.005 µM, the ED50 [2] was greater than 44 µM and the CD50 [3] was 44 µM.
